Assay results: patent US8440836B2, “Heterocyclic alkanol derivatives” (Bayer Intellectual Property GmbH, priority 2010, dated 2013)

What was measured:
Sphaerotheca fuliginea = assay: Sphaerotheca test (cucumber)/protective; details: cucumber plants, protective spray, 500 ppm active ingredient, evaluation 7 days after inoculation
Protocol: • Solvent: 49 parts by weight of N,N-dimethylformamide • Emulsifier: 1 part by weight of alkylaryl polyglycol ether
To produce an appropriate active ingredient formulation, 1 part by weight of active ingredient is mixed with the specified amounts of solvent and emulsifier, and the concentrate is diluted with water to the desired concentration. To test for protective activity, young cucumber plants are sprayed with the formulation of active ingredient at the stated application rate. 1 day after the treatment, the plants are inoculated with a spore suspension of Sphaerotheca fuliginea. The plants are then placed in a greenhouse at 70% relative air humidity and a temperature of 23° C. Evaluation follows 7 days after the inoculation.

[1] = logP by HPLC (EEC Directive 79/831 Annex V.A8); type: physicochemical; details: HPLC reversed-phase C18, method [a]: LC-MS, pH 2.7, 0.1% aqueous formic acid / acetonitrile, gradient 10% to 95% acetonitrile

| SMILES | efficacy (Sphaerotheca fuliginea) [%] | logP [1] | chromatographic logP ([1]; reversed-phase C18 HPLC column) |
| --- | --- | --- | --- |
| CC(C)(C)C(O)(CCc1ccc(Cl)cc1)c1cncs1 (centres unmarked) [Compound 5] | 100 | – | – |
| CC(C)(C)C(O)(CCc1ccc(SC(F)(F)F)cc1)c1cncs1 (centres unmarked) [Compound 6] | 100 | – | – |
| OC(Cc1ccccc1Cl)(c1cncs1)C1(Cl)CC1 (centres unmarked) [Compound 7] | 83 | – | – |
| CC(CF)(CF)C(O)(COc1ccc(Cl)cc1)c1cncs1 (centres unmarked) [Compound 9] | 95 | logP 2.94^[a]; [M + H]^+ = 348 | – |
| OC(COc1ccc(Cl)cc1)(c1cncs1)C1(Cl)CC1 (centres unmarked) [Compound 16] | 78 | – | – |
| CC(C)C(O)(COc1ccc(SC(F)(F)F)cc1)c1cncs1 (centres unmarked) [Compound 17] | 93 | – | – |
| CC(C)(C)C(O)(CCc1ccc(Cl)cc1)Cc1cncs1 (centres unmarked) [Compound 18] | 95 | – | – |
| CC(C)(C)C(O)(COc1ccc(-c2ccc(I)cc2)cc1)c1cncs1 (centres unmarked) [Compound 19] | – | logP 4.89^[a]; [M + H]^+ = 480 | – |
| CC(C)C(O)(COc1ccc(I)cc1)c1cncs1 (centres unmarked) [Compound 21] | 85 | – | – |
| CC(C)C(O)(COc1ccc(Br)cc1)c1cncs1 (centres unmarked) [Compound 22] | 96 | – | – |
| CC(C)C(O)(COc1ccc(Cl)cc1)c1cncs1 (centres unmarked) [Compound 23] | 80 | – | – |
| CC1(C(O)(COc2ccccc2Br)c2cncs2)CC1 (centres unmarked) [Compound 24] | 83 | – | – |
| CC1(C(O)(COc2cccc(I)c2)c2cncs2)CC1 (centres unmarked) [Compound 26] | 75 | logP 3.41^[a]; [M + H]^+ = 402 | – |
| CC1(C(O)(COc2cccc(Br)c2)c2cncs2)CC1 (centres unmarked) [Compound 27] | 93 | logP 3.24^[a]; [M + H]^+ = 354, 356 | – |
| CC(C)(C)C(O)(COc1ccc(Oc2ccc(Br)cc2)cc1)c1cncs1 (centres unmarked) [Compound 28] | 95 | logP 4.66^[a]; [M + H]^+ = 448/450 | – |
| CC(C)(C)C(O)(COc1ccc(Oc2ccc(Cl)cc2)cc1)c1cncs1 (centres unmarked) [Compound 29] | 98 | logP 4.50^[a]; [M + H]^+ = 404 | – |
| CC(C)(C)C(O)(COc1ccc(-c2ccc(C(F)(F)F)cc2)cc1)c1cncs1 (centres unmarked) [Compound 30] | – | logP 4.62^[a]; [M + H]^+ = 422 | – |
| CC(=O)c1ccc(-c2ccc(OCC(O)(c3cncs3)C(C)(C)C)cc2)cc1 (centres unmarked) [Compound 31] | 100 | – | – |
| CC(C)(C)C(O)(COc1ccc(Oc2ccc(C(F)(F)F)cc2)cc1)c1cncs1 (centres unmarked) [Compound 32] | 96 | logP 4.63^[a]; [M + H]^+ = 438 | – |
| CC1(C(O)(COc2ccc(Cl)cc2)c2cncs2)CCCCC1 (centres unmarked) [Compound 34] | 99 | logP 4.25^[a]; [M + H]^+ = 352 | – |
| CC(C)(C)C(O)(COc1ccc(-c2ccc(Cl)cc2)cc1)c1cncs1 (centres unmarked) [Compound 36] | 98 | logP 4.55^[a]; [M + H]^+ = 388 | – |
| CC(C)(C)C(O)(COc1ccc(C2CCCCC2)cc1)c1cncs1 (centres unmarked) [Compound 37] | 100 | logP 5.21^[a]; [M + H]^+ = 360 | – |
| CC(C)(C)C(O)(COc1ccc(Oc2ccc(F)cc2)cc1)c1cncs1 (centres unmarked) [Compound 38] | 98 | logP 4.03^[a]; [M + H]^+ = 388 | – |
| CC(C)(C)c1ccc(OCC(O)(c2cncs2)C(C)(C)C)cc1 (centres unmarked) [Compound 40] | 90 | logP 4.39^[a]; [M + H]^+ = 334 | – |
| CC(C)(C)C(O)(COc1cccc(Oc2ccccc2)c1)c1cncs1 (centres unmarked) [Compound 43] | – | logP 3.98^[a]; [M + H]^+ = 370 | – |
| CC1(C(O)(COc2cccc([N+](=O)[O-])c2)c2cncs2)CC1 (centres unmarked) [Compound 45] | – | logP 2.62^[a]; [M + H]^+ = 321 | – |
| CC(CF)(CF)C(O)(Cc1ccccc1Cl)c1cncs1 (centres unmarked) [Compound 46] | – | logP 2.78^[a]; [M + H]^+ = 332 | – |

| SMILES | efficacy (Sphaerotheca fuliginea) [%] | logP [1] | chromatographic logP ([1]; reversed-phase C18 HPLC column) |
| --- | --- | --- | --- |
| CC(CF)(CF)C(O)(Cc1ccccc1F)c1cncs1 (centres unmarked) [Compound 47] | – | logP 2.47^[a]; [M + H]^+ = 316 | – |
| CC(C)(C)C(O)(Cc1ccc(F)cc1)c1cncs1 (centres unmarked) [Compound 48] | – | – | 2.91 |
| COc1cc(-c2ccccc2)ccc1OCC(O)(c1cncs1)C(C)(C)C (centres unmarked) [Compound 49] | – | logP 4.02^[a]; [M + H]^+ = 384 | – |
| CC(C)(C)C(O)(COc1ccc(-c2ccccc2)cc1)c1cncs1 (centres unmarked) [Compound 50] | 100 | logP 4.03^[a]; [M + H]^+ = 354 | – |
| CC(C)(C)C(O)(COc1ccc(-c2ccc(C#N)cc2)cc1)c1cncs1 (centres unmarked) [Compound 51] | 94 | logP 3.46^[a]; [M + H]^+ = 379 | – |
| CC(C)(C)C(O)(COc1ccc(-c2ccc(Br)cc2)cc1)c1cncs1 (centres unmarked) [Compound 52] | 100 | logP 4.71^[a]; [M + H]^+ = 432/434 | – |
| CC(C)(/C=C/Cl)C(O)(COc1ccc(Cl)cc1)c1cncs1 (centres unmarked) [Compound 54] | 95 | logP 3.67^[a]; [M + H]^+ = 358 | – |
| CC1(C(O)(COc2ccccc2I)c2cncs2)CC1 (centres unmarked) [Compound 55] | – | logP 3.33^[a]; [M + H]^+ = 402 | – |
| CC(C)(C)C(O)(COc1ccc(SC(F)(F)Cl)cc1)c1cncs1 (centres unmarked) [Compound 58] | – | logP 4.23^[a]; [M + H]^+ = 394 | – |
| OC(Cc1cnc(Cl)s1)(Cc1ccccc1F)C1(Cl)CC1 (centres unmarked) [Compound 59] | – | logP 4.21^[a]; [M + H]^+ = 346 | – |
| CC(C)(C)C(O)(COc1ccc(Cl)cc1)Cc1cnc(Cl)s1 (centres unmarked) [Compound 61] | – | logP 4.68^[a]; [M + H]^+ = 360 | – |
| CC(C)(C)C(O)(COc1ccc(I)cc1)Cc1cnc(Cl)s1 (centres unmarked) [Compound 62] | – | logP 5.12^[a]; [M + H]^+ = 452 | – |
| CC(C)(C)C(O)(COc1ccc(F)cc1)Cc1cnc(Cl)s1 (centres unmarked) [Compound 63] | – | logP 4.20^[a]; [M + H]^+ = 344 | – |
| CC(C)(C)C(O)(COc1ccc(Cl)cc1)Cc1cncs1 (centres unmarked) [Compound 64] | 100 | logP 3.49^[a]; [M + H]^+ = 326 | – |
| CC(CF)(CF)C(O)(COc1ccc(Cl)cc1)Cc1cnc(Cl)s1 (centres unmarked) [Compound 65] | – | logP 3.94^[a]; [M + H]^+ = 397 | – |
| CC(C)(C)C(O)(COc1ccc(F)cc1)Cc1cncs1 (centres unmarked) [Compound 66] | – | logP 3.16^[a]; [M + H]^+ = 310 | – |
| CC(CF)(CF)C(O)(COc1ccc(Cl)cc1)Cc1cncs1 (centres unmarked) [Compound 67] | 95 | logP 3.04^[a]; [M + H]^+ = 362 | – |
| CC(C)[Si](c1ncc(C(O)(Cc2ccccc2Cl)C2(Cl)CC2)o1)(C(C)C)C(C)C (centres unmarked) [Compound 68] | – | logP 7.18^[a]; [M + H]^+ = 455 | – |
| OC(Cc1ccccc1Cl)(c1cnco1)C1(Cl)CC1 (centres unmarked) [Compound 69] | – | logP 2.88^[a]; [M + H]^+ = 299 | – |
| CC(C)[Si](c1ncc(C(O)(CCc2ccc(Cl)cc2)C(C)(C)C)o1)(C(C)C)C(C)C (centres unmarked) [Compound 70] | – | logP 7.36^[a]; [M + H]^+ = 451 | – |
| CC(C)(C)C(O)(CCc1ccc(Cl)cc1)c1cnco1 (centres unmarked) [Compound 71] | – | logP 3.45^[a]; [M + H]^+ = 294 | – |
| CC(C)(C)C(O)(CCc1ccc([N+](=O)[O-])cc1)c1cncs1 (centres unmarked) [Compound 75] | – | logP 2.98^[a]; [M + H]^+ = 321 | – |
| CC(C)(C)C(O)(CCc1ccc(N)cc1)c1cncs1 (centres unmarked) [Compound 76] | – | logP 1.16; [M + H]^+ = 291 | – |
| CC(C)(C)c1ccc(CCC(O)(c2cncs2)C(C)(C)C)cc1 (centres unmarked) [Compound 77] | – | logP 1.98^[a]; [M + H]^+ = 333 | – |
| CCN(C)C=Nc1ccc(CCC(O)(c2cncs2)C(C)(C)C)cc1 (centres unmarked) [Compound 78] | – | logP 1.33^[a]; [M + H]^+ = 360 | – |
| OC(COc1ccc(I)cc1)(c1cncs1)C1(C(F)(F)F)CC1 (centres unmarked) [Compound 81] | – | logP 3.59^[a]; [M + H]^+ = 456 | – |
| OC(COc1ccc(Br)cc1)(c1cncs1)C1(C(F)(F)F)CC1 (centres unmarked) [Compound 82] | – | logP 3.43^[a]; [M + H]^+ = 408/410 | – |
